In the NIST ThermoML archive (doi:10.1021/je900974u):
± gives the expanded uncertainty stated by the source.

How the values were obtained:
[1] = molar heat capacity at constant pressure; conditions: 101.33 kPa, Liquid, Vacuum adiabatic calorimetry
[2] = Crystal
[3] = Molar enthalpy of transition or fusion; conditions: Crystal; Adiabatic calorimetry

CCCC[N+](C)(C)C.O=S(=O)([N-]S(=O)(=O)C(F)(F)F)C(F)(F)F [butyltrimethylammonium bis(trifluoromethylsulfonyl)imide]
[1]
Conditions	molar heat capacity at constant pressure [J/K/mol]
278.32 K	547.5 ± 0.7
280.19 K	548.7 ± 0.8
282.06 K	549.7 ± 0.8
283.93 K	550.8 ± 0.8
285.8 K	551.9 ± 0.8
287.67 K	553 ± 0.8
289.54 K	554.1 ± 0.8
291.42 K	555.3 ± 0.8
293.29 K	556.4 ± 0.8
293.87 K	557 ± 0.8
295.16 K	557.4 ± 0.8
297.04 K	558.4 ± 0.8
298 K	559.2 ± 0.8
298.91 K	559.5 ± 0.8
300.04 K	560.4 ± 0.8
302.07 K	561.1 ± 0.8
304.14 K	563.3 ± 0.8
306.21 K	563.9 ± 0.8
308.28 K	565.4 ± 0.8
310.35 K	566.5 ± 0.8
312.42 K	568.2 ± 0.8
314.49 K	569.1 ± 0.8
316.55 K	570.3 ± 0.8
318.6 K	571.4 ± 0.8
320.67 K	573.2 ± 0.8
322.73 K	575.1 ± 0.8
324.8 K	575 ± 0.8
326.86 K	576.5 ± 0.8
328.92 K	577.2 ± 0.8
330.98 K	578.5 ± 0.8
333.04 K	580.6 ± 0.8
335.09 K	581.5 ± 0.8
337.15 K	582.9 ± 0.8
339.2 K	584.1 ± 0.8
341.26 K	585.7 ± 0.8
343.31 K	586.6 ± 0.8
345.36 K	587.7 ± 0.8
347.41 K	588.6 ± 0.8
349.46 K	590.1 ± 0.8
351.49 K	591.1 ± 0.8
353.54 K	592.1 ± 0.8
355.59 K	593.4 ± 0.8
357.65 K	594.8 ± 0.8
359.7 K	596 ± 0.8
361.76 K	597.4 ± 0.8
363.81 K	598.5 ± 0.8
365.87 K	599.8 ± 0.8
367.93 K	600.9 ± 0.8

Conditions	Molar enthalpy of transition or fusion [kcal/mol]	Triple point temperature [K]
[2]	–	290.23 ± 0.2
[3]	2.725 ± 0.0239	–

CCCC[N+]1(C)CCCC1.O=S(=O)([N-]S(=O)(=O)C(F)(F)F)C(F)(F)F
[1]
Conditions	molar heat capacity at constant pressure [J/K/mol]
237.44 K	546.8 ± 0.7
239.5 K	548 ± 0.8
241.39 K	549 ± 0.8
243.28 K	550.7 ± 0.8
245.17 K	552.2 ± 0.8
247.06 K	553.5 ± 0.8
248.95 K	554.6 ± 0.8
250.84 K	556 ± 0.8
252.73 K	557.3 ± 0.8
254.62 K	558.7 ± 0.8
256.51 K	559.6 ± 0.8
258.4 K	561.5 ± 0.8
260.29 K	562.1 ± 0.8
262.04 K	563.9 ± 0.8
262.18 K	563.5 ± 0.8
264.07 K	565.2 ± 0.8
264.1 K	565.2 ± 0.8
265.99 K	566.6 ± 0.8
267.88 K	567.6 ± 0.8
269.77 K	568.9 ± 0.8
271.66 K	570.2 ± 0.8
273.55 K	571.6 ± 0.8
275.44 K	572.9 ± 0.8
277.33 K	574.2 ± 0.8
279.22 K	575.3 ± 0.8
281.11 K	576.6 ± 0.8
283 K	577.9 ± 0.8
284.89 K	579.2 ± 0.8
286.78 K	580.2 ± 0.8
288.67 K	581.4 ± 0.8
290.56 K	582.8 ± 0.8
292.45 K	584 ± 0.8
294.34 K	585.1 ± 0.8
296.23 K	586.3 ± 0.8
298.12 K	588 ± 0.8
300.01 K	589 ± 0.8
301.9 K	590.6 ± 0.8
303.79 K	591.8 ± 0.8
305.68 K	593 ± 0.8
307.57 K	594.5 ± 0.8
309.46 K	595.6 ± 0.8
311.34 K	596.7 ± 0.8
313.23 K	598.2 ± 0.8
315.12 K	599.6 ± 0.8
317.02 K	600.8 ± 0.8
318.92 K	602.2 ± 0.8
320.82 K	603.4 ± 0.8
322.71 K	604.5 ± 0.8
324.61 K	606.1 ± 0.8
326.51 K	607.5 ± 0.8
328.41 K	608.6 ± 0.8
330.31 K	609.9 ± 0.8
332.21 K	611.4 ± 0.8
334.11 K	612.9 ± 0.8
336.01 K	614.2 ± 0.8
337.91 K	615.4 ± 0.8
339.81 K	616.8 ± 0.8
341.72 K	618.2 ± 0.8
343.62 K	619.5 ± 0.8
345.52 K	621 ± 0.8
347.44 K	622.4 ± 0.8
349.34 K	623.9 ± 0.8
351.25 K	625.2 ± 0.8
353.16 K	626.7 ± 0.8
355.06 K	627.9 ± 0.8
356.97 K	629.2 ± 0.8
358.87 K	630.9 ± 0.8
360.78 K	632.1 ± 0.8
362.69 K	633.7 ± 0.8
364.59 K	635 ± 0.8
366.5 K	636.1 ± 0.8
368.4 K	638 ± 0.8

Conditions	Molar enthalpy of transition or fusion [kcal/mol]	Triple point temperature [K]
[2]	–	265.65 ± 0.2
[3]	5.234 ± 0.0239	–

CCCCn1cc[n+](C)c1.N#CN=C=[N-] [1-butyl-3-methylimidazolium dicyanamide]
[1]
Conditions	molar heat capacity at constant pressure [J/K/mol]
235.8 K	355.9 ± 0.6
237.81 K	356.5 ± 0.6
239.87 K	356.9 ± 0.6
241.93 K	357.5 ± 0.6
243.99 K	357.9 ± 0.6
246.05 K	358.6 ± 0.6
248.11 K	359.2 ± 0.6
249.31 K	359.4 ± 0.6
250.17 K	359.8 ± 0.6
251.33 K	360.2 ± 0.6
252.23 K	360.4 ± 0.6
253.39 K	360.8 ± 0.6
254.29 K	360.8 ± 0.6
255.46 K	361.2 ± 0.6
256.35 K	361.4 ± 0.6
257.53 K	362 ± 0.6
258.41 K	362 ± 0.6
259.59 K	362.7 ± 0.6
260.48 K	362.7 ± 0.6
261.66 K	363.3 ± 0.6
262.54 K	363.5 ± 0.6
263.72 K	363.9 ± 0.6
264.6 K	364.1 ± 0.6
265.79 K	364.7 ± 0.6
266.66 K	364.7 ± 0.6
267.86 K	365.3 ± 0.6
268.72 K	365.3 ± 0.6
269.92 K	365.9 ± 0.6
270.79 K	366.1 ± 0.6
271.99 K	366.5 ± 0.6
272.85 K	366.8 ± 0.6
274.05 K	367.2 ± 0.6
274.91 K	367.4 ± 0.6
276.12 K	368 ± 0.6
278.19 K	368.6 ± 0.6
280.25 K	369.4 ± 0.6
282.32 K	370 ± 0.6
284.39 K	370.9 ± 0.6
286.45 K	371.5 ± 0.6
288.52 K	372.3 ± 0.6
290.59 K	372.9 ± 0.6
292.65 K	373.7 ± 0.6
294.72 K	374.5 ± 0.6
296.78 K	375.4 ± 0.6
298.85 K	376.2 ± 0.6
300.92 K	376.8 ± 0.6
302.98 K	377.6 ± 0.6
305.05 K	378.4 ± 0.6
307.12 K	379.1 ± 0.6
309.18 K	379.9 ± 0.6
311.25 K	380.7 ± 0.6
313.32 K	381.5 ± 0.6
315.39 K	382.3 ± 0.6
317.46 K	382.9 ± 0.6
319.53 K	383.8 ± 0.6
321.6 K	384.8 ± 0.6
323.67 K	385.6 ± 0.6
325.73 K	386.4 ± 0.6
327.8 K	387 ± 0.6
329.87 K	388.1 ± 0.6
331.94 K	388.9 ± 0.6
334.01 K	389.7 ± 0.6
336.08 K	390.5 ± 0.6
338.15 K	391.1 ± 0.6
340.22 K	392 ± 0.6
342.29 K	392.8 ± 0.6
344.36 K	393.6 ± 0.6
346.43 K	394.4 ± 0.6
348.5 K	395.5 ± 0.6
350.57 K	396.3 ± 0.6
352.65 K	397.1 ± 0.6
354.72 K	397.9 ± 0.6
356.79 K	398.9 ± 0.6
358.86 K	399.6 ± 0.6
360.93 K	400.6 ± 0.6
363 K	401.4 ± 0.6
365.07 K	402.2 ± 0.6
367.14 K	403.2 ± 0.6

Conditions	Molar enthalpy of transition or fusion [kcal/mol]	Triple point temperature [K]
[2]	–	270.83 ± 0.6
[3]	4.254 ± 0.0239	–
